# Experimental data as given in article doi:10.1101/2023.04.18.537371v1 (bioRxiv, 2023).
# pKd: −log10 of the molar value. Ends that are not written are not given here.
# What was measured:
# [1] = Plasma and brain levels in male CD-1 mice after a single IP dose; type: in vivo, CD-1 mouse; settings: for Tissue Homogenate Conc / Plasma Conc: male CD-1 mice, IP 10 mg/kg single
# TLR2 = settings: read-out: KD for binding to TLR2; ref 1 (Li et al); cited from earlier work
# [2] = male, CD-1, mouse, brain homogenate, ip, 10 mg/kg
# [3] = male, CD-1, mouse, brain, ip, 10 mg/kg
# [4] = male, CD-1, mouse, plasma, ip, 10 mg/kg
substance,measurement,setting,value
"RKDVY [TP5, thymopentin, reference compound] [listing 1 of 2 here]",Tissue Homogenate Conc,"[1]; brain homogenate, 0.5 h, animal 2",2.17 ng/mL
same,Tissue Homogenate Conc,"[1]; brain homogenate, 0.5 h, animal 3",3.18 ng/mL
same,Tissue Homogenate Conc,"[1]; brain homogenate, 1 h, animal 1",1.69 ng/mL
same,Tissue Homogenate Conc,"[1]; brain homogenate, 1 h, animal 2",1.78 ng/mL
same,Tissue Homogenate Conc,"[1]; brain homogenate, 1 h, animal 3",2.20 ng/mL
same,Tissue Homogenate Conc,"[1]; brain homogenate, 2 h, animal 1",1.64 ng/mL
same,Tissue Homogenate Conc,"[1]; brain homogenate, 2 h, animal 2",1.28 ng/mL
same,Tissue Homogenate Conc,"[1]; brain homogenate, 2 h, animal 3",1.22 ng/mL
same,Tissue Homogenate Conc,"[1]; brain homogenate, 4 h, animal 1",1.16 ng/mL
same,Tissue Homogenate Conc,"[1]; brain homogenate, 4 h, animal 2",1.03 ng/mL
same,Tissue Homogenate Conc,"[1]; brain homogenate, 4 h, animal 3",1.08 ng/mL
same,level at 0.5 h,[1]; [2],2.56 ng/mL
same,level at 1 h,[1]; [2],1.89 ng/mL
same,level at 2 h,[1]; [2],1.38 ng/mL
same,level at 4 h,[1]; [2],1.09 ng/mL
same,tissue level at time at 0.5 h,[1]; [3],10.3 ng/g
same,tissue level at time at 1 h,[1]; [3],7.56 ng/g
same,tissue level at time at 2 h,[1]; [3],5.52 ng/g
same,tissue level at time at 4 h,[1]; [3],4.36 ng/g
same,level at 0.5 h,[1]; [4],132 ng/mL
same,level at 1 h,[1]; [4],90.9 ng/mL
same,level at 2 h,[1]; [4],59.5 ng/mL
same,level at 4 h,[1]; [4],49 ng/mL
same,level at 8 h,[1]; [4],27.6 ng/mL
same,Plasma Conc,"[1]; plasma, 0.5 h, animal 1, LC-MS/MS",144 ng/mL
same,Plasma Conc,"[1]; plasma, 0.5 h, animal 2",136 ng/mL
same,Plasma Conc,"[1]; plasma, 0.5 h, animal 3",115 ng/mL
same,Plasma Conc,"[1]; plasma, 1 h, animal 1",80.1 ng/mL
same,Plasma Conc,"[1]; plasma, 1 h, animal 2",107 ng/mL
same,Plasma Conc,"[1]; plasma, 1 h, animal 3",85.7 ng/mL
same,Plasma Conc,"[1]; plasma, 2 h, animal 1",56.5 ng/mL
same,Plasma Conc,"[1]; plasma, 2 h, animal 2",67.2 ng/mL
same,Plasma Conc,"[1]; plasma, 2 h, animal 3",54.8 ng/mL
same,Plasma Conc,"[1]; plasma, 4 h, animal 1",53.4 ng/mL
same,Plasma Conc,"[1]; plasma, 4 h, animal 2",42.2 ng/mL
same,Plasma Conc,"[1]; plasma, 4 h, animal 3",51.3 ng/mL
same,Plasma Conc,"[1]; plasma, 8 h, animal 1",28.7 ng/mL
same,Plasma Conc,"[1]; plasma, 8 h, animal 2",30.6 ng/mL
same,Plasma Conc,"[1]; plasma, 8 h, animal 3",23.6 ng/mL
"RKDVY [TP5, thymopentin, reference compound] [listing 2 of 2 here]",pKd,TLR2,5.80
